The subject of data set [1] is S. aureus NRS70. The data set is described as follows: MIC, broth microdilution, S. aureus NRS70. It is filed as cell-based, Staphylococcus aureus. The following applies: for MIC: Staphylococcus aureus; for In vitro AB activity (MIC): Table 2.1, S. aureus NRS70. The method, then: (§1) MICs were evaluated following the CLSI microdilution method in BBL™ Mueller-Hinton II broth (Wikler et al., Clinical Laboratory Standards Institute Document M7-A7, 29 (2009)). Briefly, two-fold serial dilutions of compound were prepared in triplicate in 96-well plates and inoculated with 5×10^5 cfu/mL of the bacterial suspension. Plates were incubated at 37° C. for 16-20 hours.
(Broth dilution looks for growth in wells or tubes with falling amounts of substance.)

Data set [2] has as its system S. haemolyticus ATCC 29970. Kind of data set: MIC, CLSI broth microdilution, S. haemolyticus ATCC 29970. Format: cell-based. The settings on record: for MIC: Staphylococcus haemolyticus, ATCC29970; for In vitro AB activity (MIC): Table 2.1, S. haemolyticus ATCC 29970. The method, then:
as §1

In data set [3] the test system is S. aureus NRS128. The data set is described as follows: MIC, CLSI broth microdilution, S. aureus NRS128. Format: cell-based, Staphylococcus aureus. The settings on record: Table 2.1, S. aureus NRS128. The method, then: as §1
The test system of data set [4] is S. aureus NRS100. Kind of data set: MIC, CLSI broth microdilution, S. aureus NRS100. Format: cell-based, Staphylococcus aureus. The following applies: for MIC: Staphylococcus aureus; for In vitro AB activity (MIC): Table 2.1, S. aureus NRS100. The method, then: as §1
Data set [5] concerns S. aureus VRS1. The data set is described as follows: MIC, CLSI broth microdilution, S. aureus VRS1. Format: cell-based, Staphylococcus aureus. The settings on record: for MIC: Staphylococcus aureus; for In vitro AB activity (MIC): Table 2.1, S. aureus VRS1. As to the method: as §1
The test system of data set [6] is S. aureus NRS120. Kind of data set: MIC, CLSI broth microdilution, S. aureus NRS120. The settings on record: for MIC: Staphylococcus aureus; for In vitro AB activity (MIC): Table 2.1, S. aureus NRS120. Format: cell-based, Staphylococcus aureus. As to the method: as §1
Data set [7] has as its system S. aureus VRS2. Kind of data set: MIC, CLSI broth microdilution, S. aureus VRS2. It is filed as cell-based, Staphylococcus aureus. The settings on record: for MIC: Staphylococcus aureus; for In vitro AB activity (MIC): Table 2.1, S. aureus VRS2. As to the method:
as §1

Data set [8] relates to S. aureus NRS119. The data set is described as follows: MIC, CLSI broth microdilution, S. aureus NRS119. It is filed as cell-based, Staphylococcus aureus. The settings on record: for MIC: Staphylococcus aureus; for In vitro AB activity (MIC): Table 2.1, S. aureus NRS119. As to the method:
as §1

In data set [9] the test system is S. aureus ATCC 29213 (MSSA). Kind of data set: MIC, CLSI broth microdilution, S. aureus ATCC 29213. It is filed as cell-based, Staphylococcus aureus. The settings on record: for In vitro AB activity (MIC): Table 2.1, S. aureus ATCC 29213; for MIC (w/ BSA): S. aureus ATCC 29213, in the presence of bovine serum albumin; for MIC: S. aureus strain ATCC 29213 (MSSA). The method, then:
as §1

The subject of data set [10] is S. aureus NRS123. The data set is described as follows: MIC, broth microdilution, S. aureus NRS123. Format: cell-based. The following applies: Staphylococcus aureus. The method, then: as §1
Data set [11] in a line: Pharmacokinetics in mice. The following applies: Table 1, ICR female mice, single dose iv. As to the method:
We conducted first fast PK studies (n=2 mice per time point, 5 time points) dosing the compounds iv, followed by full PK studies for selected compounds (n=3 mice per time point, 10-12 time points per route of administration, iv and po).
A single dose of compound 2 was administered to mice (n=3 per time point) by tail vein injection or by oral gavage at 10 mg/kg. Blood was collected by cardiac puncture in heparinized syringes at 2, 5, 20, and 40 min and at 1, 2, 3, 4, 8, 18, and 24 h after iv dosing and at 0.5, 1, 2, 3, 4, 6, 9, 24, and 30 h after po dosing. Blood was centrifuged to obtain plasma. A 50-μL aliquot of plasma was mixed with 100 μL of acetonitrile containing internal standard (5 μM final concentration), followed by centrifugation at 20,000 g for 15 min. The supernatant was analyzed by reverse-phase UPLC. PK parameters were calculated as described in the Plasma protein binding and Pharmacokinetics sections below (see also Gooyit et al. J. Med. Chem. 54, 6676-6690 (2011)).
The area under the concentration-time curve up to the last quantifiable sampling time (AUC0-last) was calculated by the trapezoidal rule. AUC0-∞ was calculated as AUC0-last+(Clast/k), where Clast is the concentration at the last quantifiable sampling time and k is the elimination rate constant. The concentration at time=0 (C0) was estimated from the first sampling times by back-extrapolation using log-linear regression analysis. Half-lives (t1/2α and t1/2β) were estimated from the linear portion of the initial or terminal concentration-time data by linear regression, where the slope of the line was the rate constant k and t1/2α=ln 2/k. Volume of distribution (Vd) was calculated as the dose divided by the initial concentration (C0). Clearance (CL) was calculated from the dose divided by AUC0-∞. Oral bioavailability (F) was calculated by dividing the AUCpo by the AUCiv, as equivalent iv and po doses were administered.

Data set [12] has as its system MRSA ATCC 27660. The data set is described as follows: Mouse peritonitis model of MRSA infection. It is filed as in vivo, mice. The settings on record: n = 6, 48 h. The method, then:
We evaluated several compounds in in vivo mouse infection models, as well as in pharmacokinetic (PK) studies in mice (Table 1). The in vivo efficacy was determined using the rapid mouse peritonitis model of infection, in which the end point is death or survival in 48 hours. We initially dosed the compounds intravenously (iv) at a single dose level. If the compound has good in vivo efficacy after iv administration, we then evaluated efficacy at five dose levels. We also investigated in vivo efficacy after oral (po) administration.
Groups (n=6/group) of mice were infected with MRSA (0.5 mL of ATCC 27660 at a final concentration of 5×10^7 CFU/mL in 5% porcine mucin) intraperitoneally (ip). Following infection, mice were given iv doses by tail vein injection of compound 2, vancomycin (5 mg/kg, positive control), or vehicle at 30 min and 4.5 h after infection. The number of surviving mice was monitored for 48 h. The negative control (vehicle) typically results in the death of all mice. Quinazolinone 2 was dissolved in saline, sterile-filtered, and administered at doses of 2.5, 5, 7.5, 10, 20, and 30 mg/kg. The ED50 value was calculated using GraphPad prism 5.

In data set [13] the test system is S. epidermidis ATCC 35547. The data set is described as follows: MIC, CLSI broth microdilution, S. epidermidis ATCC 35547. Format: cell-based. The method, then:
as §1

≈ marks a conversion by molar mass, not a printed value. Like-named read-outs stand apart in the source and are kept apart here. Where only a bound is given, the exact number is not on record here.

Here are results for four molecules from patent US10329262B2, “Quinazolinone antibiotics” (priority 2013, dated 2019).

As usually defined, the MIC is the lowest concentration that inhibits growth of the organism.

Take `Cc1onc(-c2ccccc2)c1C(=O)N[C@@H]1C(=O)N2[C@@H]1SC(C)(C)[C@@H]2C(=O)O` [oxacillin]: the MIC in data set [1] (NRS70, Table 3, single agent, read-out: MIC NRS70) is 64 µg/mL (≈ 159 µM); in [1] (Table 2, S. aureus NRS70, read-out: MIC), 32 µg/mL (≈ 79.7 µM); in data set [2] (Table 2, S. haemolyticus ATCC 29970, read-out: MIC) it was 0.25 µg/mL (≈ 0.623 µM); in data set [4] (Table 2, S. aureus NRS100, read-out: MIC), 512 µg/mL (≈ 1280 µM); in data set [5] (Table 2, S. aureus VRS1, read-out: MIC), 512 µg/mL (≈ 1280 µM); in data set [6] (Table 2, S. aureus NRS120, read-out: MIC) it was 512 µg/mL (≈ 1280 µM). Also, the MIC came to 256 µg/mL (≈ 638 µM) in data set [7] (Table 2, S. aureus VRS2, read-out: MIC); 512 µg/mL (≈ 1280 µM) in data set [8] (Table 2, S. aureus NRS119, read-out: MIC); 32 µg/mL (≈ 79.7 µM) in [10] (NRS123, Table 3, single agent, read-out: MIC NRS123); 32 µg/mL (≈ 79.7 µM) in data set [10] (Table 2, S. aureus NRS123, read-out: MIC). For the same molecule, the In vitro AB activity (MIC) was determined as 32 µg/mL in data set [1]; 0.25 µg/mL in data set [2]; 0.5 µg/mL in data set [3]; 512 µg/mL in [4]; 512 µg/mL in [5]; 512 µg/mL in data set [6]. Besides, the In vitro AB activity (MIC) in [7] came to 256 µg/mL; in data set [8], 512 µg/mL; in data set [9] it was 0.25 µg/mL.

Consider `CC(=O)Nc1cccc(-n2c(/C=C/c3ccc(F)cc3)nc3ccccc3c2=O)c1` [Compound 5], for which, in [11], the “AUC (iv)” value is “AUC = 284 μg.min/mL”, the CL result is given as “CL = 88.2 mL/min/kg” and the Vd entry is “Vd = 55.0 mL”. Further, in data set [12] (10 mg/kg iv at 30 min and 4.5 hr after infection), the “In Vivo Efficacy (survived/total mice)” value is 2/6 @ 10 mg/kg. For the same molecule, in data set [9], the “MIC (w/ BSA)” value stood at 8 µg/mL and the MIC came out at 1 µg/mL (≈ 2.5 µM).

Consider `Cc1nc2ccccc2c(=O)o1` [Compound 3], for which, in data set [11], the “AUC (iv)” value was “AUC = 466 μg.min/mL”, the CL entry was “CL = 10.7 mL/min/kg” and the Vd result is recorded as “Vd = 8.9 mL”. The “In Vivo Efficacy (survived/total mice)” value in data set [12] (5 mg/kg iv at 30 min and 4.5 hr after infection) was 1/6 @ 5 mg/kg. Moreover, in [9], the “MIC (w/ BSA)” value worked out at 4 µg/mL and the MIC came to 0.25 µg/mL (≈ 1.55 µM).

For the molecule `CN[C@H](CC(C)C)C(=O)N[C@H]1C(=O)N[C@@H](CC(N)=O)C(=O)N[C@H]2C(=O)N[C@H]3C(=O)N[C@H](C(=O)N[C@H](C(=O)O)c4cc(O)cc(O)c4-c4cc3ccc4O)[C@H](O)c3ccc(c(Cl)c3)Oc3cc2cc(c3O[C@@H]2O[C@H](CO)[C@@H](O)[C@H](O)[C@H]2O[C@H]2C[C@](C)(N)[C@H](O)[C@H](C)O2)Oc2ccc(cc2Cl)[C@H]1O` [vancomycin], the MIC in data set [1] (NRS70) is 1 µg/mL (≈ 0.69 µM); in [2] it was 2 µg/mL (≈ 1.38 µM); in data set [4] (NRS100), 2 µg/mL (≈ 1.38 µM); in data set [13] (Staphylococcus epidermidis, ATCC35547), 64 µg/mL (≈ 44.2 µM); in [5] (VRS1), over 256 µg/mL; in data set [6] (NRS120), 2 µg/mL (≈ 1.38 µM). For the same molecule, the MIC in data set [7] (VRS2) came out at 64 µg/mL (≈ 44.2 µM); in data set [8] (NRS119) it was 2 µg/mL (≈ 1.38 µM); in data set [10] (NRS123), 1 µg/mL (≈ 0.69 µM). Also, the In vitro AB activity (MIC) in data set [1] came to 1 µg/mL; in data set [2] it was 2 µg/mL; in data set [3], 1 µg/mL; in data set [4] it was 2 µg/mL; in data set [13] (Table 2.1, S. epidermidis ATCC 35547), 16 µg/mL; in [5], 512 µg/mL. Moreover, the In vitro AB activity (MIC) was determined as 2 µg/mL in [6], 64 µg/mL in [7], 2 µg/mL in data set [8] and 1 µg/mL in data set [9].
